Common to all, as to format: biochemical
One experiment deals with T1, PDE9A2 (Homo sapiens, UniProt O76083).
T1 construct: purchased Reaction Biology Corporation, Malvern, Pa
As to the kind of experiment: Phosphodiesterase enzyme screening assay, PDE9A2. The settings on record: 4.0 μM cGMP substrate, 1 hour at R.T., read-out: Band (PDE9A2 IC50). In a few lines: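 Read-out was electrophoretic mobility-shift separation on chip of fluorescent cyclic nucleotide from 5′-AMP/5′-GMP, with inhibition or enhancement judged against control wells (quadruplicate means). Reactions lasted 1 h at RT in HEPES pH 7.5 buffer with MgCl2, DTT and Brij plus 4.0 μM cGMP substrate, then were halted with EDTA stop buffer.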

The next experiment addresses T2, PDE1A (Homo sapiens, UniProt P54750).
T2 construct: purchased Reaction Biology Corporation, Malvern, Pa
Description: Phosphodiesterase enzyme screening assay, PDE1A. The text has this:
(§1) Compounds of the invention were screened against PDE1A, PDE1B, PDE2A, PDE3A, PDE3B, PDE4A1A, PDE4B1, PDE4D3, PDE5A1, PDE6C, PDE7A, PDE8A1, PDE9A2, PDE10A2 AND PDE11A isoforms of the phosphodiesterase enzyme to determine activity and overall selectivity through comparative analysis. […] Where 8-methoxy-IBMX and Zaprinast were used as reference inhibitors.
(§2) The phosphodiesterase enzyme isoforms were obtained from a commercial retailer (Reaction Biology Corporation, Malvern, Pa.) for use in the instant screening assay.
(§3) The analysis was completed using the Caliper LabChip 3000 and a 12-sipper LabChip. LabChip assays are separations-based, meaning that the product and substrate are electrophoretically separated, thereby minimizing interferences and yielding the highest data quality available on any screening platform. […] High Z′ values, few false positives, few false negatives and analytical quality reproducibility are the reasons cited for the increasing reliance on the LabChip assays.
(§4) The off-chip incubation mobility-shift phosphodiesterase assay uses a microfluidic chip to measure the conversion of a fluorescent cyclic AMP substrate to a 5′-AMP product, or a cyclic GMP substrate to a 5′-GMP product. The reaction mixture, from a microtiter plate well, is introduced through a capillary sipper onto the chip, where the fluorescent substrate and product are separated by electrophoresis and detected via laser-induced fluorescence. […] The precision of microfluidics allows researchers to detect subtle interactions between drug candidates and therapeutic targets.
(§5) Reactions were carried out in 100 mM HEPES (pH 7.5), 5 mM MgCl2, 1 mM DTT, 0.003% Brij, 4.0 μM cGMP substrate. The reaction was started by addition of cGMP or cAMP and incubated for 1 hour at R.T. The reaction was terminated by the addition of stop buffer containing 100 mM HEPES (pH 7.5), 15 mM EDTA, 0.015% Brij-35, 5% DMSO. Cyclic AMP/GMP substrate and 5′-AMP/5′-GMP product were separated by charge using electrophoretic mobility shift. Product formed was compared to control wells to determine inhibition or enhancement of enzyme activity.
(§6) Data points were averages of quadruplicate wells and error bars represented the SEM for each point.

The next experiment concerns the target T3, PDE1B (Homo sapiens, UniProt Q01064).
T3 construct: purchased Reaction Biology Corporation, Malvern, Pa
Description: Phosphodiesterase enzyme screening assay, PDE1B.
From the text: as §1, §2, §3, §4, §5, §6

[1] abbreviates: Table 1, ratio of IC50 values, value greater than 1 indicates greater selectivity for PDE9A2.
Setting [2] is: ratio of IC50 values PDE1A / PDE9A2, value greater than 1 = greater selectivity for PDE9A2.
Where [3] appears, read: ratio of IC50 values PDE1B / PDE9A2, value greater than 1 = greater selectivity for PDE9A2.

pIC50: −log10 of the molar value. Like-named read-outs stand apart in the source and are kept apart here.

T1 sequence (O76083 1-533 isoform O76083-2): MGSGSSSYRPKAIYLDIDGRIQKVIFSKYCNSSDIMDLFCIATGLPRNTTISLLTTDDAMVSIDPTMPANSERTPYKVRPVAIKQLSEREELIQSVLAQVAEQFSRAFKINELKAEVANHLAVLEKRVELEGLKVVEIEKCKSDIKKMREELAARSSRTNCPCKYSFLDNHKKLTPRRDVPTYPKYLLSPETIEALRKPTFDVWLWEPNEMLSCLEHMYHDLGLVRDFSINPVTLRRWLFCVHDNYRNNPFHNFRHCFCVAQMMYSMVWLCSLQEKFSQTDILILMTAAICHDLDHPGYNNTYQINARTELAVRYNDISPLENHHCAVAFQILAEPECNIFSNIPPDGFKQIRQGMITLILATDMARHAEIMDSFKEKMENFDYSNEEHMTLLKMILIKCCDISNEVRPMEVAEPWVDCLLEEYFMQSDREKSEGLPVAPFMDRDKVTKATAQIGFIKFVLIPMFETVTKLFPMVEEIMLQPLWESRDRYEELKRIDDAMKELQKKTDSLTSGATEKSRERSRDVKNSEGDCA
T3 sequence (Q01064 whole entry): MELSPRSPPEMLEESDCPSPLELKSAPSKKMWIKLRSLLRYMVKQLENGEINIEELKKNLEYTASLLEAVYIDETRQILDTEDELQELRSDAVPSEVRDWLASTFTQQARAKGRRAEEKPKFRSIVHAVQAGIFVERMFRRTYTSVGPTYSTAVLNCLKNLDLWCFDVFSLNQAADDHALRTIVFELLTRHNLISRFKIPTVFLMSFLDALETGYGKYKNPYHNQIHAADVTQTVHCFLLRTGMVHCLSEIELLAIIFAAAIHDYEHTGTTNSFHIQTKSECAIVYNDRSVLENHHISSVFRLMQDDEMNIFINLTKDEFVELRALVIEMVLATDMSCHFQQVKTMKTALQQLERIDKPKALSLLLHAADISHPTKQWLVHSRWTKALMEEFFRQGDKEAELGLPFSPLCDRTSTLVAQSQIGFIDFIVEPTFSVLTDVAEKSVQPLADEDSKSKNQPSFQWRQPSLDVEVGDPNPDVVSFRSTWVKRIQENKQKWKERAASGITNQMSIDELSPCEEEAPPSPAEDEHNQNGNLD
T2 sequence (P54750 whole entry): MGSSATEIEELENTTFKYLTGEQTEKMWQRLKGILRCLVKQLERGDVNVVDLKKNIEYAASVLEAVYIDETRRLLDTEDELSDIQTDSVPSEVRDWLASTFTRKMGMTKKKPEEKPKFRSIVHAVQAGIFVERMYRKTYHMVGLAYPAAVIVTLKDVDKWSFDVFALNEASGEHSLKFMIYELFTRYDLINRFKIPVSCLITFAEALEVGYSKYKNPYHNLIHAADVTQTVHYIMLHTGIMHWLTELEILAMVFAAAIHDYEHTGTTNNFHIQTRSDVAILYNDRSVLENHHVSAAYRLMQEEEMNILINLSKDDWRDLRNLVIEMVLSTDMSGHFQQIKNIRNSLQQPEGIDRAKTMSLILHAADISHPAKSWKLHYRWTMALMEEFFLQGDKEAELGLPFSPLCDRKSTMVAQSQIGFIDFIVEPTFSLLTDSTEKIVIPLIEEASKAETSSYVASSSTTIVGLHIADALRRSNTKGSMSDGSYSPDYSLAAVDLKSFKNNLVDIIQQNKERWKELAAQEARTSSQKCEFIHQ

Consider `CC1CN(Cc2cc(Cl)ccc2Cl)CC1c1nn2c(C3CCOCC3)ncc2c(=O)[nH]1` (single isomer, unassigned; (+)) [(+)-2-((3,4-trans)-1-(2,5-dichlorobenzyl)-4-methylpyrrolidin-3-yl)-7-(tetrahydro-2H-pyran-4-yl)imidazo[5,1-f][1,2,4]triazin-4(3H)-one], for which the negative-log IC50 (pIC50) – broadly, −log10 of the IC50, conventionally taken in molar units – at PDE9A2 (Table 1, 10 concentrations) is > 6.00. Further, the “PDE1A selectivity (versus PDE9A2)” value at PDE1A (setting [1]) amounted to 274. Also, the “PDE1B selectivity (versus PDE9A2)” value at PDE1B (setting [1]) was 90.
Regarding `CC1CN(Cc2cc(F)ccc2F)CC1c1nn2c(C3CCOCC3)ncc2c(=O)[nH]1` (single isomer, unassigned; (+)) [(+)-2-((3,4-trans)-1-(2,5-difluorobenzyl)-4-methylpyrrolidin-3-yl)-7-(tetrahydro-2H-pyran-4-yl)imidazo[5,1-f][1,2,4]triazin-4(3H)-one], the pIC50 on PDE9A2 (Table 1, 10 concentrations) is > 6.00. In addition, the “PDE1A selectivity (versus PDE9A2)” value on PDE1A (setting [1]) worked out at 97. In addition, the “PDE1B selectivity (versus PDE9A2)” value on PDE1B (setting [1]) was determined as 118.
`CC1CN(Cc2ccccc2N(C)C)CC1c1nn2c(C3CCOCC3)ncc2c(=O)[nH]1` (single isomer, unassigned; (+)) [(+)-2-((3,4-trans)-1-(2-(dimethylamino)benzyl)-4-methylpyrrolidin-3-yl)-7-(tetrahydro-2H-pyran-4-yl)imidazo[5,1-f][1,2,4]triazin-4(3H)-one]: the pIC50 at PDE9A2 (Table 1, 10 concentrations) was > 6.00. The “PDE1A selectivity (versus PDE9A2)” value on PDE1A (setting [1]) was determined as 363. Moreover, at PDE1B (setting [1]), the “PDE1B selectivity (versus PDE9A2)” value is listed as 279.
Take `CC1CN(Cc2ccccc2Br)CC1c1nn2c(C3CCOCC3)ncc2c(=O)[nH]1` (single isomer, unassigned; (+)) [(+)-2-((3,4-trans)-1-(2-bromobenzyl)-4-methylpyrrolidin-3-yl)-7-(tetrahydro-2H-pyran-4-yl)imidazo[5,1-f][1,2,4]triazin-4(3H)-one]: the pIC50 on PDE9A2 (Table 1, 10 concentrations) was > 6.00. Further, the “PDE1A selectivity (versus PDE9A2)” value on PDE1A (setting [1]) was 104. Further, on PDE1B (setting [1]), the “PDE1B selectivity (versus PDE9A2)” value is on record as 28.
Regarding `CC1CN(Cc2c(F)ccc(F)c2Cl)CC1c1nn2c(C3CCOCC3)ncc2c(=O)[nH]1` (single isomer, unassigned; (+)) [(+)-2-((3,4-trans)-1-(2-chloro-3,6-difluorobenzyl)-4-methylpyrrolidin-3-yl)-7-(tetrahydro-2H-pyran-4-yl)imidazo[5,1-f][1,2,4]triazin-4(3H)-one], the pIC50 at PDE9A2 is > 6.00. At PDE1A (setting [2]), the “PDE1A selectivity (versus PDE9A2)” value is recorded as 118. At PDE1B (setting [3]), the “PDE1B selectivity (versus PDE9A2)” value turned out to be 231.
Taken in the same sequence, the figures for `CC1CN(Cc2cc(F)ccc2Cl)CC1c1nn2c(C3CCOCC3)ncc2c(=O)[nH]1` (single isomer, unassigned; (+)) [(+)-2-((3,4-trans)-1-(2-chloro-5-fluorobenzyl)-4-methylpyrrolidin-3-yl)-7-(tetrahydro-2H-pyran-4-yl)imidazo[5,1-f][1,2,4]triazin-4(3H)-one] were > 6.00, 177 and 73.
On to `CC1CN(Cc2c(F)cccc2Cl)CC1c1nn2c(C3CCOCC3)ncc2c(=O)[nH]1` (single isomer, unassigned; (+)) [(+)-2-((3,4-trans)-1-(2-chloro-6-fluorobenzyl)-4-methylpyrrolidin-3-yl)-7-(tetrahydro-2H-pyran-4-yl)imidazo[5,1-f][1,2,4]triazin-4(3H)-one], for which, at PDE9A2, the pIC50 is > 6.00. The “PDE1A selectivity (versus PDE9A2)” value at PDE1A (setting [2]) was 196. Also, the “PDE1B selectivity (versus PDE9A2)” value at PDE1B (setting [3]) is on record as 252.
`CC1CN(Cc2ccccc2Cl)CC1c1nn2c(C3CCOCC3)ncc2c(=O)[nH]1` (single isomer, unassigned; (+)) [(+)-2-((3,4-trans)-1-(2-chlorobenzyl)-4-methylpyrrolidin-3-yl)-7-(tetrahydro-2H-pyran-4-yl)imidazo[5,1-f][1,2,4]triazin-4(3H)-one]: at PDE9A2 (Table 1, 10 concentrations), the negative-log IC50 (pIC50) was > 6.00. For the same compound, the “PDE1A selectivity (versus PDE9A2)” value at PDE1A (setting [1]) was determined as 92. For the same compound, the “PDE1B selectivity (versus PDE9A2)” value on PDE1B (setting [1]) was determined as 48.
Regarding `COc1ccc(F)c(CN2CC(C)C(c3nn4c(C5CCOCC5)ncc4c(=O)[nH]3)C2)c1` (single isomer, unassigned; (+)) [(+)-2-((3,4-trans)-1-(2-fluoro-5-methoxybenzyl)-4-methylpyrrolidin-3-yl)-7-(tetrahydro-2H-pyran-4-yl)imidazo[5,1-f][1,2,4]triazin-4(3H)-one], on PDE9A2 (Table 1, 10 concentrations), the pIC50 was > 6.00. For the same compound, the “PDE1A selectivity (versus PDE9A2)” value at PDE1A (setting [1]) is 340. Besides, the “PDE1B selectivity (versus PDE9A2)” value on PDE1B (setting [1]) was determined as 255.
Consider `CC1CN(Cc2ccccc2F)CC1c1nn2c(C3CCOCC3)ncc2c(=O)[nH]1` (single isomer, unassigned; (+)) [(+)-2-((3,4-trans)-1-(2-fluorobenzyl)-4-methylpyrrolidin-3-yl)-7-(tetrahydro-2H-pyran-4-yl)imidazo[5,1-f][1,2,4]triazin-4(3H)-one], for which, at PDE9A2 (Table 1, 10 concentrations), the pIC50 was > 6.00. Further, the “PDE1A selectivity (versus PDE9A2)” value at PDE1A (setting [1]) is 300. Moreover, the “PDE1B selectivity (versus PDE9A2)” value on PDE1B (setting [1]) is recorded as 442.
Taken in the same sequence, the figures for `COc1ccccc1CN1CC(C)C(c2nn3c(C4CCOCC4)ncc3c(=O)[nH]2)C1` (single isomer, unassigned; (+)) [(+)-2-((3,4-trans)-1-(2-methoxybenzyl)-4-methylpyrrolidin-3-yl)-7-(tetrahydro-2H-pyran-4-yl)imidazo[5,1-f][1,2,4]triazin-4(3H)-one] were > 6.00, 337 and 230.
For the compound `CC1CN(Cc2ccc(Cl)c(Cl)c2)CC1c1nn2c(C3CCOCC3)ncc2c(=O)[nH]1` (single isomer, unassigned; (+)) [(+)-2-((3,4-trans)-1-(3,4-dichlorobenzyl)-4-methylpyrrolidin-3-yl)-7-(tetrahydro-2H-pyran-4-yl)imidazo[1,5-f][1,2,4]triazin-4(3H)-one], the negative-log IC50 (pIC50) at PDE9A2 (Table 1, 10 concentrations) was > 6.00. For the same compound, on PDE1A (setting [1]), the “PDE1A selectivity (versus PDE9A2)” value came out at 1297. Moreover, at PDE1B (setting [1]), the “PDE1B selectivity (versus PDE9A2)” value is listed as 2627.
The like results for `CC1CN(Cc2cc(Cl)cc(Cl)c2)CC1c1nn2c(C3CCOCC3)ncc2c(=O)[nH]1` (single isomer, unassigned; (+)) [(+)-2-((3,4-trans)-1-(3,5-dichlorobenzyl)-4-methylpyrrolidin-3-yl)-7-(tetrahydro-2H-pyran-4-yl)imidazo[5,1-f][1,2,4]triazin-4(3H)-one] were, in that order, > 6.00, 93 and 92.
The like results for `CC1CN(Cc2cc(F)cc(F)c2)CC1c1nn2c(C3CCOCC3)ncc2c(=O)[nH]1` (single isomer, unassigned; (+)) [(+)-2-((3,4-trans)-1-(3,5-difluorobenzyl)-4-methylpyrrolidin-3-yl)-7-(tetrahydro-2H-pyran-4-yl)imidazo[1,5-f][1,2,4]triazin-4(3H)-one] were, in that order, > 6.00, 1710 and 1043.
The like results for `CC1CN(Cc2cccc(-n3cccn3)c2)CC1c1nn2c(C3CCOCC3)ncc2c(=O)[nH]1` (single isomer, unassigned; (+)) [(+)-2-((3,4-trans)-1-(3-(1H-pyrazol-1-yl)benzyl)-4-methylpyrrolidin-3-yl)-7-(tetrahydro-2H-pyran-4-yl)imidazo[5,1-f][1,2,4]triazin-4(3H)-one] were, in that order, > 6.00, 612 and 1490.
Regarding `CC1CN(Cc2cccc(N(C)C)c2)CC1c1nn2c(C3CCOCC3)ncc2c(=O)[nH]1` (single isomer, unassigned; (+)) [(+)-2-((3,4-trans)-1-(3-(dimethylamino)benzyl)-4-methylpyrrolidin-3-yl)-7-(tetrahydro-2H-pyran-4-yl)imidazo[5,1-f][1,2,4]triazin-4(3H)-one], the negative logarithm of the IC50 (pIC50) at PDE9A2 (Table 1, 10 concentrations) was > 6.00. In addition, the “PDE1A selectivity (versus PDE9A2)” value on PDE1A (setting [1]) was 680. The “PDE1B selectivity (versus PDE9A2)” value on PDE1B (setting [1]) came out at 923.

(Values after US9969742B2, “Imidazotriazinone compounds” (Ironwood Pharmaceuticals, Inc., priority 2012, dated 2018).)
